From patent US9255295B2, “Method for evaluating the sensitizing potential of a test compound” (IMMUNOSEARCH, priority 2010, dated 2016)
Where two headings read alike, the source gives them in different places.

What was measured:
[1] = system: ARE gene family (AKR1B10, AKR1C1, AKR1C2, CYP1B1, FTH1P, FTL, G6PD, GCLM, NQO2, SLC7A11, TXNRD1, UGT1A1, UGT1A9, YWHAZ, CD36, CYP1A1, GCLC, HMOX1, NQO1, PSME2 …)
[2] = system: EPISKIN model
From the text: “Sensitizing power” means the ability of a given compound to induce a sensitization reaction according to the concentration of said compound. Sensitizing power is dependent on the quantity of substance necessary to induce sensitization. Thus, the lower the sensitizing quantity necessary to induce a sensitizing response, the stronger the sensitizer is, and vice versa, the higher the sensitizing quantity necessary to induce a sensitizing response, the weaker the sensitizer is.
Thus, steps 1) and 2) will be done for each of the dilutions.

## Nc1ccccc1O [2-aminophenol]
[1]; 1%
  S100A8 expression compared to control: 1.2
  S100A8 grade (NUMBER OF GENES): 0 (if this expression is lower, the grade is 0)
  SLC7A11 expression compared to control: 3.2
  SLC7A11 grade (NUMBER OF GENES): 1 (If the expression is greater than 1.3 compared to the control, a grade of 11s given)
  TOTAL ARE (NUMBER OF GENES): 10
  TXNRD1 expression compared to control: 4.8
  TXNRD1 grade (NUMBER OF GENES): 1 (If the expression is greater than 1.3 compared to the control, a grade of 11s given)
  UGT1A1 expression compared to control: 1.6
  UGT1A1 grade (NUMBER OF GENES): 1 (If the expression is greater than 1.3 compared to the control, a grade of 11s given)
  UGT1A9 expression compared to control: 1.0
  UGT1A9 grade (NUMBER OF GENES): 0 (if this expression is lower, the grade is 0)
[1]; 10%
  AHR expression compared to control: 0.7
  AHR grade (NUMBER OF GENES): 0 (if this expression is lower, the grade is 0)
  AKR1B10 expression compared to control: 1.1
  AKR1B10 grade (NUMBER OF GENES): 0 (if this expression is lower, the grade is 0)
  AKR1C1 expression compared to control: 9.3
  AKR1C1 grade (NUMBER OF GENES): 1 (If the expression is greater than 1.3 compared to the control, a grade of 11s given)
  AKR1C2 expression compared to control: 3.4
  AKR1C2 grade (NUMBER OF GENES): 1 (If the expression is greater than 1.3 compared to the control, a grade of 11s given)
  ARE >1.3 (NUMBER OF GENES): 14
  CD36 expression compared to control: 0.5
  CD36 grade (NUMBER OF GENES): 0 (if this expression is lower, the grade is 0)
  CYP1A1 expression compared to control: 122.0
  CYP1A1 grade (NUMBER OF GENES): 1 (If the expression is greater than 1.3 compared to the control, a grade of 11s given)
  CYP1B1 expression compared to control: 45.1
  CYP1B1 grade (NUMBER OF GENES): 1 (If the expression is greater than 1.3 compared to the control, a grade of 11s given)
  FTH1P expression compared to control: 1.5
  FTH1P grade (NUMBER OF GENES): 1 (If the expression is greater than 1.3 compared to the control, a grade of 11s given)
  FTL expression compared to control: 2.5
  FTL grade (NUMBER OF GENES): 1 (If the expression is greater than 1.3 compared to the control, a grade of 11s given)
  GCLC expression compared to control: 2.3
  GCLC grade (NUMBER OF GENES): 1 (If the expression is greater than 1.3 compared to the control, a grade of 11s given)
  GCLM expression compared to control: 4.6
  GCLM grade (NUMBER OF GENES): 1 (If the expression is greater than 1.3 compared to the control, a grade of 11s given)
  HMOX1 expression compared to control: 1.7
  HMOX1 grade (NUMBER OF GENES): 1 (If the expression is greater than 1.3 compared to the control, a grade of 11s given)
  NQO1 expression compared to control: 2.5
  NQO1 grade (NUMBER OF GENES): 1 (If the expression is greater than 1.3 compared to the control, a grade of 11s given)
  NQO2 expression compared to control: 1.4
  NQO2 grade (NUMBER OF GENES): 1 (If the expression is greater than 1.3 compared to the control, a grade of 11s given)
  S100A8 expression compared to control: 1.2
  S100A8 grade (NUMBER OF GENES): 0 (if this expression is lower, the grade is 0)
  SLC7A11 expression compared to control: 3.8
  SLC7A11 grade (NUMBER OF GENES): 1 (If the expression is greater than 1.3 compared to the control, a grade of 11s given)
  TOTAL ARE (NUMBER OF GENES): 14
  TXNRD1 expression compared to control: 7.6
  TXNRD1 grade (NUMBER OF GENES): 1 (If the expression is greater than 1.3 compared to the control, a grade of 11s given)
  UGT1A1 expression compared to control: 1.8
  UGT1A1 grade (NUMBER OF GENES): 1 (If the expression is greater than 1.3 compared to the control, a grade of 11s given)
  UGT1A9 expression compared to control: 1.2
  UGT1A9 grade (NUMBER OF GENES): 0 (if this expression is lower, the grade is 0)
[1]; 50%
  AHR expression compared to control: 1.3
  AHR grade (NUMBER OF GENES): 0 (if this expression is lower, the grade is 0)
  AKR1B10 expression compared to control: 1.3
  AKR1B10 grade (NUMBER OF GENES): 1 (If the expression is greater than 1.3 compared to the control, a grade of 11s given)
  AKR1C1 expression compared to control: 8.6
  AKR1C1 grade (NUMBER OF GENES): 1 (If the expression is greater than 1.3 compared to the control, a grade of 11s given)
  AKR1C2 expression compared to control: 3.3
  AKR1C2 grade (NUMBER OF GENES): 1 (If the expression is greater than 1.3 compared to the control, a grade of 11s given)
  ARE >1.3 (NUMBER OF GENES): 14
  CD36 expression compared to control: 0.7
  CD36 grade (NUMBER OF GENES): 0 (if this expression is lower, the grade is 0)
  CYP1A1 expression compared to control: 66.5
  CYP1A1 grade (NUMBER OF GENES): 1 (If the expression is greater than 1.3 compared to the control, a grade of 11s given)
  CYP1B1 expression compared to control: 37.7
  CYP1B1 grade (NUMBER OF GENES): 1 (If the expression is greater than 1.3 compared to the control, a grade of 11s given)
  FTH1P expression compared to control: 2.0
  FTH1P grade (NUMBER OF GENES): 1 (If the expression is greater than 1.3 compared to the control, a grade of 11s given)
  FTL expression compared to control: 3.5
  FTL grade (NUMBER OF GENES): 1 (If the expression is greater than 1.3 compared to the control, a grade of 11s given)
  GCLC expression compared to control: 4.0
  GCLC grade (NUMBER OF GENES): 1 (If the expression is greater than 1.3 compared to the control, a grade of 11s given)
  GCLM expression compared to control: 4.7
  GCLM grade (NUMBER OF GENES): 1 (If the expression is greater than 1.3 compared to the control, a grade of 11s given)
  HMOX1 expression compared to control: 1.9
  HMOX1 grade (NUMBER OF GENES): 1 (If the expression is greater than 1.3 compared to the control, a grade of 11s given)
  NQO1 expression compared to control: 3.3
  NQO1 grade (NUMBER OF GENES): 1 (If the expression is greater than 1.3 compared to the control, a grade of 11s given)
  NQO2 expression compared to control: 1.3
  NQO2 grade (NUMBER OF GENES): 0 (if this expression is lower, the grade is 0)
  S100A8 expression compared to control: 1.3
  S100A8 grade (NUMBER OF GENES): 1 (If the expression is greater than 1.3 compared to the control, a grade of 11s given)
  SLC7A11 expression compared to control: 6.0
  SLC7A11 grade (NUMBER OF GENES): 1 (If the expression is greater than 1.3 compared to the control, a grade of 11s given)
  TOTAL ARE (NUMBER OF GENES): 14
  TXNRD1 expression compared to control: 6.4
  TXNRD1 grade (NUMBER OF GENES): 1 (If the expression is greater than 1.3 compared to the control, a grade of 11s given)
  UGT1A1 expression compared to control: 2.1
  UGT1A1 grade (NUMBER OF GENES): 1 (If the expression is greater than 1.3 compared to the control, a grade of 11s given)
  UGT1A9 expression compared to control: 0.4
  UGT1A9 grade (NUMBER OF GENES): 0 (if this expression is lower, the grade is 0)
[2]
  sensitizing power (class): STRONG
